pEC50, pIC50: −log10 of the molar value. Values after ≈ are worked out from the molar mass of the structure shown. Active and inactive are the calls of the source. The calls are words filed in the database; no cut-off is given here.
Experiments:
[1] = molecular target: T1, ClpP1P2 (Mycobacterium tuberculosis (strain ATCC 25618 / H37Rv), UniProt P9WPC3+P9WPC5); experiment: Inhibition of N-terminal His6-SUMO-tagged Mtb ClpP1 (7 to 200 residues)/ClpP2 (13 to 214 residues) complex expressed in Escherichia coli BL21(DE3) using Z-Gly-Gly-Leu-AMC as substrate measured for 60 mins in presence of Bz-LL by fluorescence based assay
T1 sequence (P9WPC5 whole entry, the tested form may be a part): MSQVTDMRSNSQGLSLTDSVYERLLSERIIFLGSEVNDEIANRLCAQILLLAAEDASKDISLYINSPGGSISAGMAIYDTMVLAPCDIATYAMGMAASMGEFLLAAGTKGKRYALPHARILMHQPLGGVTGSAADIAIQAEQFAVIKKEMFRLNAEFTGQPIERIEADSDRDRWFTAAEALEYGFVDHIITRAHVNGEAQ
T1 sequence (P9WPC3 whole entry, the tested form may be a part): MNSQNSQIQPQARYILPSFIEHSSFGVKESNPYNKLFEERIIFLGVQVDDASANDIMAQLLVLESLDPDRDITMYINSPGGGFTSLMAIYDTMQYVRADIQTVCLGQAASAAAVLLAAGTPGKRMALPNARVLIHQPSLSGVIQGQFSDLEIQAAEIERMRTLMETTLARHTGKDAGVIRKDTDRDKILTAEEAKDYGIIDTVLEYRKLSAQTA

[2] = molecular target: T1, ClpP1P2; experiment: Inhibition of N-terminal His6-SUMO-tagged Mtb ClpP1 (7 to 200 residues)/ClpP2 (13 to 214 residues) complex expressed in Escherichia coli BL21(DE3) using FITC-casein as substrate measured for 1 hr in presence of Bz-LL/ATP by fluorescence based assay
[3] = system: Mycobacterium tuberculosis; experiment: Antibacterial activity against Mycobacterium tuberculosis H37Ra assessed as bacterial growth inhibition incubated for 24 hrs by broth microdilution method; assay type: functional
[4] = molecular target: T2, ClpP1P2 (Mycobacterium tuberculosis (strain ATCC 25618 / H37Rv)) (UniProt P9WPC5+P9WPC3); experiment: Inhibition of N-terminal His6-SUMO-tagged Mtb ClpP1 (7 to 200 residues)/ClpP2 (13 to 214 residues) complex expressed in Escherichia coli BL21(DE3) using Z-Gly-Gly-Leu-AMC as substrate at 10 uM incubated for 40 mins in presence of Bz-LL by fluorescence based assay
[5] = system: Pseudomonas aeruginosa; experiment: Antibacterial activity against Pseudomonas aeruginosa assessed as bacterial growth inhibition incubated for 24 hrs by broth microdilution method; assay type: functional
[6] = Inhibition of full-length human ClpP complex ([…]) expressed in Escherichia coli BL21(DE3) using FITC-casein as substrate measured for 1 hr in presence of Bz-LL/ONC212/ATP by fluorescence based assay
[7] = Inhibition of full-length Mtb H37Rv ClpP complex expressed in Escherichia coli BL21(DE3) using FITC-casein as substrate measured for 1 hr in presence of Bz-LL/ATP by fluorescence based assay; design: species or system Mycobacterium tuberculosis
[8] = system: Escherichia coli; experiment: Antibacterial activity against Escherichia coli assessed as bacterial growth inhibition incubated for 24 hrs by broth microdilution method; assay type: functional
[9] = Inhibition of full-length Staphylococcus aureus ClpP complex expressed in Escherichia coli BL21(DE3) using Suc-LY-AMC as substrate measured for 60 mins in presence of Bz-LL by fluorescence based assay
[10] = (§1) Selectivity index, ratio of IC50 for full-length Pseudomonas aeruginosa ClpP1 expressed in Escherichia coli BL21(DE3) using Suc-LY-AMC as substrate to IC50 for N-terminal His6-SUMO-tagged Mtb ClpP1 (7 to 200 residues)/ClpP2 (13 to 214 residues) complex expressed in Escherichia coli BL21(DE3)
[11] = Inhibition of N-terminal His6-SUMO-tagged Mycobacterium smegmatis ClpP1 (3 to 200 residues)/P2 (17 to 218 residues) expressed in Escherichia coli BL21(DE3) using Z-Gly-Gly-Leu-AM as substrate measured for 60 mins in presence of Bz-LL by fluorescence based assay; design: species or system Mycolicibacterium smegmatis
[12] = Inhibition of full-length human ClpP complex ([…]) expressed in Escherichia coli BL21(DE3) using Ac-WLA-AMC as substrate measured for 60 mins in presence of Bz-LL by fluorescence based assay
[13] = system: Mycobacterium tuberculosis; experiment: Antibacterial activity against Mycobacterium tuberculosis H37Rv assessed as bacterial growth inhibition incubated for 24 hrs by broth microdilution method; assay type: functional
[14] = molecular target: T2, ClpP1P2 (Mycobacterium tuberculosis (strain ATCC 25618 / H37Rv)); experiment: Inhibition of wild-type Mtb ClpP1 expressed in Escherichia coli BL21(DE3)
[15] = system: Staphylococcus aureus; experiment: Antibacterial activity against Staphylococcus aureus assessed as bacterial growth inhibition incubated for 24 hrs by broth microdilution method; assay type: functional
[16] = Inhibition of full-length Staphylococcus aureus ClpP complex/Escherichia coli ClpX delta N mutant (62 to 425 residues) expressed in Escherichia coli BL21(DE3) using FITC-casein as substrate measured for 1 hr in presence of Bz-LL/ATP by fluorescence based assay
[17] = molecular target: T1, ClpP1P2; experiment: Binding affinity to N-terminal His6-SUMO-tagged Mtb ClpP1 (7 to 200 residues)/ClpP2 (13 to 214 residues) complex expressed in Escherichia coli BL21(DE3) assessed as increase in thermal stability measured at 25 to 110 degreeC in presence of Bz-LL by DSF assay
[18] = molecular target: ATP-dependent Clp protease ATP-binding subunit ClpC1 (Mycobacterium tuberculosis) (UniProt P9WPC9); experiment: Inhibition of N-terminal His6-tagged full-length Mtb ClpC1 ATPase activity expressed in Escherichia coli BL21(DE3) at 100 uM in presence of PK/LDH/ATP/NADH by spectrophotometry
ATP-dependent Clp protease ATP-binding subunit ClpC1 (Mycobacterium tuberculosis), sequence (P9WPC9 whole entry): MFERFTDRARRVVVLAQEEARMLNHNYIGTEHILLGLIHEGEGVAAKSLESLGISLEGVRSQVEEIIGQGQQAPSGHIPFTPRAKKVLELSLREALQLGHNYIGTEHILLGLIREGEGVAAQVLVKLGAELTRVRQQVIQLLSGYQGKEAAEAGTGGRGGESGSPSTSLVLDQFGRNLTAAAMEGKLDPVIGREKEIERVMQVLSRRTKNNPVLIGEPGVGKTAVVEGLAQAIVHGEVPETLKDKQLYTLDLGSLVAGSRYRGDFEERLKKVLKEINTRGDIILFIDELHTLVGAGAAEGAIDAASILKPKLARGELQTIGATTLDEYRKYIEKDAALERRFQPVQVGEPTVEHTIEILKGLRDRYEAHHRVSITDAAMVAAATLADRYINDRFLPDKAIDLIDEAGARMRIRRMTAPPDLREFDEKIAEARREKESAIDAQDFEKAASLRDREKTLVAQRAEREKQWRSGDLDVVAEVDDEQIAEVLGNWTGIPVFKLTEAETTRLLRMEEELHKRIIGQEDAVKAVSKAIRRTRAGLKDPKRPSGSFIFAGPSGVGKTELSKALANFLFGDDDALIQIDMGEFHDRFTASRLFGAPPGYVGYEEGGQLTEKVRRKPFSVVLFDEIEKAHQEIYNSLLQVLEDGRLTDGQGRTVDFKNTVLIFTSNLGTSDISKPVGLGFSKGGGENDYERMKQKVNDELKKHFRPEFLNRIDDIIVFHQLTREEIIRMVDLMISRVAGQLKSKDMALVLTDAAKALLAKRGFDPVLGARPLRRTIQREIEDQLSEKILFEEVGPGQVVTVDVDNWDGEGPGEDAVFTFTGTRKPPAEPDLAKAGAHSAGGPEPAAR

[19] = molecular target: ATP-dependent Clp protease ATP-binding subunit ClpC1 (Mycobacterium tuberculosis) (UniProt P9WPC9); experiment: Inhibition of N-terminal His6-tagged full-length Mtb ClpC1 creatine kinase activity expressed in Escherichia coli BL21(DE3) using creatine phosphate as substrate at 100 uM preincubated for 10 mins followed by substrate addition measured after 10 mins in presence of ADP by Kinase-Glo assay; conditions: time 20.0 min
[20] = as §1, with “human ClpP complex ([…])” for “Pseudomonas aeruginosa ClpP1”, “Ac-WLA-AMC” for “Suc-LY-AMC”
[21] = Selectivity index, ratio of IC50 for full-length Escherichia coli ClpP complex expressed in Escherichia coli BL21(DE3) using Suc-LY-AMC as substrate to IC50 for N-terminal His6-SUMO-tagged Mtb ClpP1 (7 to 200 residues)/ClpP2 (13 to 214 residues) complex expressed in Escherichia coli BL21(DE3)
[22] = system: Mycolicibacterium smegmatis; experiment: Antibacterial activity against Mycobacterium smegmatis mc2 155 harboring ClpX knockout assessed as bacterial growth inhibition incubated for 2 days by Alamar blue staining based assay; assay type: functional; conditions: mc2 155, 48 h, time 2 day
[23] = Inhibition of full-length Pseudomonas aeruginosa ClpP1 expressed in Escherichia coli BL21(DE3) using Suc-LY-AMC as substrate measured for 60 mins in presence of Bz-LL by fluorescence based assay
[24] = Selectivity index, ratio of IC50 for full-length Mtb H37Rv ClpP complex expressed in Escherichia coli BL21(DE3) using FITC-casein as substrate to IC50 for N-terminal His6-SUMO-tagged Mtb ClpP1 (7 to 200 residues)/ClpP2 (13 to 214 residues) complex expressed in Escherichia coli BL21(DE3)
[25] = Selectivity index, ratio of IC50 for Mtb H37Rv ClpP complex using Z-Gly-Gly-Leu-AMC as substrate to IC50 for N-terminal His6-SUMO-tagged Mtb ClpP1 (7 to 200 residues)/ClpP2 (13 to 214 residues) complex expressed in Escherichia coli BL21(DE3)
[26] = system: Mycolicibacterium smegmatis; experiment: Antibacterial activity against Mycobacterium smegmatis mc2 155 harboring ClpC1 knockout assessed as bacterial growth inhibition incubated for 2 days by Alamar blue staining based assay; assay type: functional; conditions: mc2 155, 48 h, time 2 day
[27] = Inhibition of N-terminal His6-SUMO-tagged Mycobacterium smegmatis ClpP1 (3 to 200 residues)/P2 (17 to 218 residues) expressed in Escherichia coli BL21(DE3)/C1 using Z-Gly-Gly-Leu-AM as substrate measured for 60 mins in presence of Bz-LL by fluorescence based assay; design: species or system Mycolicibacterium smegmatis
[28] = Inhibition of full-length Escherichia coli ClpP complex/Escherichia coli ClpX delta N mutant (62 to 425 residues) expressed in Escherichia coli BL21(DE3) using FITC-casein as substrate measured for 1 hr in presence of Bz-LL/ATP by fluorescence based assay
[29] = Selectivity index, ratio of IC50 for full-length human ClpP complex ([…]) expressed in Escherichia coli BL21(DE3) using FITC-casein as substrate to IC50 for N-terminal His6-SUMO-tagged Mtb ClpP1 (7 to 200 residues)/ClpP2 (13 to 214 residues) complex expressed in Escherichia coli BL21(DE3)
[30] = system: Mycolicibacterium smegmatis; experiment: Antibacterial activity against wild-type Mycobacterium smegmatis mc2 155 assessed as bacterial growth inhibition incubated for 2 days by Alamar blue staining based assay; assay type: functional; conditions: mc2 155, 48 h, time 2 day
[31] = Selectivity index, ratio of IC50 for full-length Staphylococcus aureus ClpP complex expressed in Escherichia coli BL21(DE3) using Suc-LY-AMC as substrate to IC50 for N-terminal His6-SUMO-tagged Mtb ClpP1 (7 to 200 residues)/ClpP2 (13 to 214 residues) complex expressed in Escherichia coli BL21(DE3)
[32] = Inhibition of full-length Escherichia coli ClpP complex expressed in Escherichia coli BL21(DE3) using Suc-LY-AMC as substrate incubated for 60 mins in presence of Bz-LL by fluorescence based assay
[33] = molecular target: T2, ClpP1P2 (Mycobacterium tuberculosis (strain ATCC 25618 / H37Rv)); experiment: Binding affinity to ClpP1 in Mtb H37Ra lysate at 5 mM incubated for 4 hrs by affinity based capture method; assay type: subcellular

## COc1cc2c(OC)ncnc2cc1OCCCN1CCCC1
[1]
  pIC50: < 4.00
[2]
  pIC50: < 4.00
[3]
  MIC: > 126 µM

## Oc1c(Cl)cc(Cl)c(Cl)c1Cc1c(O)c(Cl)cc(Cl)c1Cl [HEXACHLOROPHENE]
[1]
  pIC50: 5.31
[4]
  inhibition: Active

## COc1cc2c(Oc3ccc4[nH]c(C)cc4c3F)ncnc2cc1OCCCN1CCCC1 [CEDIRANIB]
[5]
  MIC: > 226 µM
[6]
  pIC50: 3.56
[1]
  pIC50: 5.55
[7]
  pIC50: 4.62
[8]
  MIC: > 226 µM
[4]
  inhibition: Active
[9]
  pIC50: < 3.30
[10]
  Ratio IC50: > 170
[11]
  pIC50: 5.21
[12]
  pIC50: 4.43
[2]
  pIC50: 4.35
[13]
  MIC: 28.2 µM (≈ 12.7 µg/mL)
[14]
  inhibition: inactive
[15]
  MIC: > 226 µM
[16]
  pIC50: 3.63
[17]
  pEC50: 4.54
[18]
  inhibition: inactive
[19]
  inhibition: inactive
[20]
  Ratio IC50: 13.3
[21]
  Ratio IC50: > 170
[22]
  MIC: 56.4 µg/mL (≈ 125 µM)
[23]
  pIC50: < 3.30
[24]
  Ratio IC50: 14.8
[3]
  MIC: 14.1 µM (≈ 6.35 µg/mL)
[25]
  Ratio IC50: 1
[26]
  MIC: 56.4 µg/mL (≈ 125 µM)
[27]
  pIC50: 4.36
[28]
  pIC50: 3.45
[29]
  Ratio IC50: 11.3
[30]
  MIC: 113 µM (≈ 50.9 µg/mL)
[31]
  Ratio IC50: > 170
[32]
  pIC50: < 3.30

## COc1cc2c(Oc3ccc4cc[nH]c4c3)ncnc2cc1OCCCN1CCCC1
[1]
  pIC50: < 4.00
[2]
  pIC50: < 4.00
[3]
  MIC: > 95.6 µM

## COc1cc2c(Nc3ccc4[nH]c(C)cc4c3F)ncnc2cc1OCCCN1CCCC1
[1]
  pIC50: < 4.00
[2]
  pIC50: < 4.00
[3]
  MIC: > 89 µM

## Cc1cc2c(F)c(Oc3ncnn4cc(OC[C@@H](C)O)c(C)c34)ccc2[nH]1 [BRIVANIB]
[1]
  pIC50: 5.16
[4]
  inhibition: Active
[2]
  pIC50: 4.62
[18]
  inhibition: inactive
[19]
  inhibition: inactive

## CC(=O)NC[C@H]1CN(c2ccc(N3CCOCC3)c(F)c2)C(=O)O1 [LINEZOLID]
[5]
  MIC: > 379 µM
[8]
  MIC: > 379 µM
[13]
  MIC: 0.2 µM (≈ 0.0675 µg/mL)
[15]
  MIC: 5.9 µM (≈ 1.99 µg/mL)
[3]
  MIC: 0.2 µM (≈ 0.0675 µg/mL)
[30]
  MIC: 5.9 µM (≈ 1.99 µg/mL)

## COc1cc(C(=O)Nc2ccc3[nH]c(C)cc3c2F)ccc1OCCCN1CCCC1
[1]
  pIC50: 4.57
[2]
  pIC50: < 4.00
[3]
  MIC: > 94 µM

## COc1cc2c(Oc3ccc4[nH]c(C)cc4c3F)ncnc2cc1OCCCCl
[1]
  pIC50: 4.31
[2]
  pIC50: < 4.00
[3]
  MIC: > 96.2 µM

## COc1cc2c(Oc3ccc4[nH]c(C)cc4c3F)ncnc2cc1O
[1]
  pIC50: 4.34
[2]
  pIC50: < 4.00
[3]
  MIC: > 118 µM

## COc1cc2c(Oc3ccc4[nH]c(C)cc4c3F)ncnc2cc1OCCCN1CCC[C@@H](N)C1
[1]
  pIC50: 5.48
[2]
  pIC50: 4.72
[33]
  Activity: Active
[3]
  MIC: 32 µM (≈ 15.3 µg/mL)

## CO[C@H]1/C=C/O[C@@]2(C)Oc3c(C)c(O)c4c(O)c(c(/C=N/N5CCN(C)CC5)c(O)c4c3C2=O)NC(=O)/C(C)=C\C=C\[C@H](C)[C@H](O)[C@@H](C)[C@@H](O)[C@@H](C)[C@H](OC(C)=O)[C@@H]1C [RIFAMPIN]
[5]
  MIC: 38.9 µM (≈ 32 µg/mL)
[8]
  MIC: 4.9 µM (≈ 4.03 µg/mL)
